Experimental data published in patent US20140249490A1, “Methods for Prevention and/or Treatment of Capsular Contracture” (J&E SOLUTIONS, LLC, priority 2013, published 2014).

Test system: capsular contracture
Assay: Clinical cases: topical treatment of breast capsular contracture, Baker grading
Type: in vivo, human
Settings: Patient #1; bilateral Grade 3 capsular contracture, after first revision; given together with massage
From the text: Wash and dry the affected area (that is, the skin surrounding the implant or the skin over the capsular contracture) prior to use. Apply the composition daily (use sparingly) with vigorous massage to affected area. If necessary, exert compression or pressure when massaging to break up existing capsule. Enhanced absorption is obtained with application of the composition following a hot shower. Occlusive dressing (hydrogel), or tight clothing (sports bras), will also enhance the result. Continued daily use will yield optimal results. […] Optimal results are best maintained with daily continued application. One particularly useful embodiment of the invention involves the use of the topical compositions for the treatment/prevention of capsular contracture in breast surgery (e.g., breast implants). There are four grades of breast capsular contracture—Baker grades I through IV. The Baker grading is as follows: Grade 1—the breast is normally soft and looks natural Grade II—the breast is a little firm but looks normal Grade III—the breast is firm and looks abnormal Grade IV—the breast is hard, painful, and looks abnormal. of developed or is at risk of developing capsular contracture a topical composition.

Compound: COc1ccc2cc([C@H](C)C(=O)O)ccc2c1 [Aleve, naproxen sodium]
- response of capsular contracture to treatment: without result
